Measured values reported in ChEMBL document CHEMBL5223139, “Synthesis of 1-(5-(4-chlorophenyl)-1-(2,4-dichlorophenyl)-4-methyl-1H-pyrazol-3-yl)-2-morpholinoethane-1,2-dione analogues and their inhibitory activities with reduced cytotoxicity in lipopolysaccharide-induced BV2 cells” (Bioorg Med Chem Lett, 2023).
The source made the active and inactive calls. The calls are words filed in the database; no cut-off is given here.

Columns and labels:
[1] = Cytotoxicity against mouse BV-2 cells assessed as cell viability at 5 uM incubated for 24 hrs by MTT assay relative to control; assay type: toxicity, cell-based; details: read-out: Activity
[2] = Inhibition of LPS-induced NO production in mouse BV-2 cells at 5 uM incubated for 24 hrs by Griess reagent based method relative to control; assay type: functional
[3] = Cytotoxicity against mouse BV-2 cells assessed as cell viability at 10 uM incubated for 24 hrs by MTT assay relative to control; assay type: toxicity, cell-based; details: read-out: Activity
[4] = Inhibition of LPS-induced NO production in mouse BV-2 cells at 10 uM incubated for 24 hrs by Griess reagent based method relative to control; assay type: functional
[5] = Inhibition of LPS-induced NO production in mouse BV-2 cells incubated for 24 hrs by Griess reagent based method; assay type: functional, cell-based; details: BV-2, 24 h
[6] = tested on: BV-2; test: Antiinflammatory activity in LPS-induced mouse BV-2 cells assessed as reduction in COX-2 protein expression pretreated for 1 hr followed by LPS stimulation and measured after 18 hrs by Western blot analysis; assay type: functional, cell-based; details: dose 5-20 µM, time 19.0 hrs
[7] = tested on: BV-2; test: Antiinflammatory activity in LPS-induced mouse BV-2 cells assessed as reduction in TNF-alpha mRNA expression pretreated for 1 hr followed by LPS stimulation and measured after 6 hrs by RT-PCR analysis; assay type: functional, cell-based; details: dose 5-20 µM, time 7.0 hrs
[8] = target: c-Jun N-terminal kinase (Mus musculus) (UniProt Q91Y86+Q9WTU6+Q61831); test: Inhibition of LPS-induced JNK phosphorylation in mouse BV-2 cells at 5 to 20 uM pretreated for 30 mins followed by LPS stimulation by Western blot analysis; assay type: cell-based; details: dose 5-20 µM
Chain of c-Jun N-terminal kinase (Mus musculus) (Q61831 whole entry, looked up): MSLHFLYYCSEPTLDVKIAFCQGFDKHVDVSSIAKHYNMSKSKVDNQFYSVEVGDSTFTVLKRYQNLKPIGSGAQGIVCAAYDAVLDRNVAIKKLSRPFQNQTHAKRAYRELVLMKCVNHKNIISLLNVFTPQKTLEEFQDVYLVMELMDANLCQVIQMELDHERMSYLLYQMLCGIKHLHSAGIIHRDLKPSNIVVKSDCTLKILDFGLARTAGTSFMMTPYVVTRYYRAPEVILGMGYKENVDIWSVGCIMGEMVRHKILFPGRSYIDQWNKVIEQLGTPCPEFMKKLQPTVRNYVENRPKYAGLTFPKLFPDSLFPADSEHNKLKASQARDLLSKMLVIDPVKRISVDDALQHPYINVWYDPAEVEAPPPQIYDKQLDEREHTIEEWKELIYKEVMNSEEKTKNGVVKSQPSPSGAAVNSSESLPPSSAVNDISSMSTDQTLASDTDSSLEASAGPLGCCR
Chain of c-Jun N-terminal kinase (Mus musculus) (Q91Y86 whole entry, looked up): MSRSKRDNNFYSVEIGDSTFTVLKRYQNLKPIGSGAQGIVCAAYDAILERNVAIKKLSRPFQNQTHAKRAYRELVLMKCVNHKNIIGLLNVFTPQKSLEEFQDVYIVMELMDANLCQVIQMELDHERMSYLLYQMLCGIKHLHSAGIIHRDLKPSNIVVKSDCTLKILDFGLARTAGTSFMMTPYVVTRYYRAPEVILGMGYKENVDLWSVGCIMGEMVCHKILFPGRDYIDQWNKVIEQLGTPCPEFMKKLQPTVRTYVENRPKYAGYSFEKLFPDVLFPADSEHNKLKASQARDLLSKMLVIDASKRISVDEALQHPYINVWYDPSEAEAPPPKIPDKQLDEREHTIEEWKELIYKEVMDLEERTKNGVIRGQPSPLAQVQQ
Chain of c-Jun N-terminal kinase (Mus musculus) (Q9WTU6 whole entry, looked up): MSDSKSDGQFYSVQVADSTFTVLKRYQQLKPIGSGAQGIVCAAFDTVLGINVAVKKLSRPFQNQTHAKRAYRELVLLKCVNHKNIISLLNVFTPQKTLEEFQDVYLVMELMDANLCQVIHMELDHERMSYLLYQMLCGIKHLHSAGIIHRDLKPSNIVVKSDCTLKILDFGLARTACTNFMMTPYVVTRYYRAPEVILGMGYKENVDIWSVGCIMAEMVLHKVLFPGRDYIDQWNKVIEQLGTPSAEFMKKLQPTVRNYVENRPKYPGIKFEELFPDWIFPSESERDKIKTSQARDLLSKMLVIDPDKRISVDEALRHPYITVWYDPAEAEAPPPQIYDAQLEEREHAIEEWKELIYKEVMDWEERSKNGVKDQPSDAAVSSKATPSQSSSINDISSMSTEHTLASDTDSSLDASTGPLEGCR

[9] = tested on: BV-2; test: Inhibition of LPS-induced ERK phosphorylation in mouse BV-2 cells pretreated for 30 mins followed by LPS stimulation by Western blot analysis; assay type: cell-based; details: dose 5-20 µM
[10] = tested on: BV-2; test: Antiinflammatory activity in LPS-induced mouse BV-2 cells assessed as reduction in iNOS mRNA expression pretreated for 1 hr followed by LPS stimulation and measured after 6 hrs by RT-PCR analysis; assay type: functional, cell-based; details: dose 5-20 µM, time 7.0 hrs
[11] = tested on: BV-2; test: Antiinflammatory activity in LPS-induced mouse BV-2 cells assessed as reduction in iNOS protein expression pretreated for 1 hr followed by LPS stimulation and measured after 18 hrs by Western blot analysis; assay type: functional, cell-based; details: dose 5-20 µM, time 19.0 hrs
[12] = tested on: BV-2; test: Antiinflammatory activity in LPS-induced mouse BV-2 cells assessed as reduction in COX-2 mRNA expression pretreated for 1 hr followed by LPS stimulation and measured after 6 hrs by RT-PCR analysis; assay type: functional, cell-based; details: dose 5-20 µM, time 7.0 hrs
[13] = target: MAP kinase p38 (Mus musculus) (UniProt P47811+O08911+Q9WUI1+Q9Z1B7); test: Inhibition of LPS-induced p38 phosphorylation in mouse BV-2 cells at 5 to 20 uM pretreated for 30 mins followed by LPS stimulation by Western blot analysis; assay type: cell-based; details: dose 5-20 µM
[14] = tested on: BV-2; test: Antiinflammatory activity in LPS-induced mouse BV-2 cells assessed as reduction in IL-6 mRNA expression pretreated for 1 hr followed by LPS stimulation and measured after 6 hrs by RT-PCR analysis; assay type: functional, cell-based; details: dose 5-20 µM, time 7.0 hrs
[15] = tested on: BV-2; test: Antiinflammatory activity in LPS-induced mouse BV-2 cells assessed as reduction in IL-1beta mRNA expression pretreated for 1 hr followed by LPS stimulation and measured after 6 hrs by RT-PCR analysis; assay type: functional, cell-based; details: dose 5-20 µM, time 7.0 hrs
[16] = tested on: BV-2; test: Inhibition of NF-kappaB activation in LPS-stimulated mouse BV-2 cells assessed as reduction in phosphorylated IkappaB-alpha level pretreated for 30 mins followed by LPS stimulation by Western blot analysis; assay type: cell-based; details: dose 5-20 µM
[17] = tested on: BV-2; test: Inhibition of NF-kappaB activation in LPS-stimulated mouse BV-2 cells assessed as reduction in phosphorylated p65 level pretreated for 30 mins followed by LPS stimulation by Western blot analysis; assay type: cell-based; details: dose 5-20 µM

With Cc1c(C(=O)NN2CCCCC2)nn(-c2ccc(Cl)cc2Cl)c1-c1ccc(Cl)cc1 [RIMONABANT] the viability at 24 h, 5 µM [1] was 99.3%, the inhibition at 5 µM [2] was 21.2% and the viability at 24 h, 10 µM [3] was 91.2%. It also gave an inhibition at 10 µM [4] of 43.9% and an IC50 [5] of 16.2 µM.

With CCCCNC(=O)C(=O)c1nn(-c2ccc(Cl)cc2Cl)c(-c2ccc(Cl)cc2)c1C the viability at 24 h, 5 µM [1] was under 80%.

Cc1c(C(=O)C(=O)N2CCC(O)CC2)nn(-c2ccc(Cl)cc2Cl)c1-c1ccc(Cl)cc1 gave a viability at 24 h, 5 µM [1] of under 80%.

Molecule Cc1c(C(=O)C(=O)NC2CCC(O)CC2)nn(-c2ccc(Cl)cc2Cl)c1-c1ccc(Cl)cc1 (stereo unspecified) has a viability at 24 h, 5 µM [1] of under 80%.

For Cc1c(C(=O)C(=O)NC(C)C)nn(-c2ccc(Cl)cc2Cl)c1-c1ccc(Cl)cc1, the viability at 24 h, 5 µM [1] was under 80%.

Work on CCCNC(=O)C(=O)c1nn(-c2ccc(Cl)cc2Cl)c(-c2ccc(Cl)cc2)c1C yielded a viability at 24 h, 5 µM [1] of under 80%.

In the case of Cc1c(C(=O)C(=O)N2CCNCC2)nn(-c2ccc(Cl)cc2Cl)c1-c1ccc(Cl)cc1, the viability at 24 h, 5 µM [1] is reported as under 80%.

Work on Cc1c(C(=O)C(=O)NCC(C)C)nn(-c2ccc(Cl)cc2Cl)c1-c1ccc(Cl)cc1 yielded a viability at 24 h, 5 µM [1] of under 80%.

Work on Cc1c(C(=O)C(=O)NC(C)(C)C)nn(-c2ccc(Cl)cc2Cl)c1-c1ccc(Cl)cc1 yielded a viability at 24 h, 5 µM [1] of under 80%.

Work on Cc1c(C(=O)C(=O)N2CCCCC2)nn(-c2ccc(Cl)cc2Cl)c1-c1ccc(Cl)cc1 yielded a viability at 24 h, 5 µM [1] of 98.2%, an inhibition at 5 µM [2] of 20.3% and a viability at 24 h, 10 µM [3] of 80%. It also gave an inhibition at 10 µM [4] of 50.1% and an IC50 [5] of 5.82 µM.

CCNC(=O)C(=O)c1nn(-c2ccc(Cl)cc2Cl)c(-c2ccc(Cl)cc2)c1C gave a viability at 24 h, 5 µM [1] of 86.4%, an inhibition at 5 µM [2] of 63.7% and a viability at 24 h, 10 µM [3] of under 80%.

Cc1c(C(=O)C(=O)NC23CC4CC(CC(C4)C2)C3)nn(-c2ccc(Cl)cc2Cl)c1-c1ccc(Cl)cc1 gave a viability at 24 h, 5 µM [1] of under 80%.

For Cc1c(C(=O)C(=O)N2CCOCC2)nn(-c2ccc(Cl)cc2Cl)c1-c1ccc(Cl)cc1, the Activity [6] was “Dose-Dependent Effect”, the Activity [7] was “Dose-Dependent Effect” and the viability at 24 h, 5 µM [1] was 98%. The inhibition at 5 µM [2] was 26.1%, the inhibition [8] was “inactive” and the inhibition [9] was “Dose-Dependent Effect”. The Activity [10] was “Dose-Dependent Effect”, the viability at 24 h, 10 µM [3] was 98.7% and the Activity [11] was “Dose-Dependent Effect”. For the same molecule, the Activity [12] was “Dose-Dependent Effect”, the inhibition [13] was “inactive” and the inhibition at 10 µM [4] was 49.7%. For the same molecule, the IC50 [5] was 4.71 µM, the Activity [14] was “Dose-Dependent Effect” and the Activity [15] was “Dose-Dependent Effect”. The inhibition [16] was “Dose-Dependent Effect” and the inhibition [17] was “Dose-Dependent Effect”.

With Cc1c(C(=O)C(=O)N2CCCCCC2)nn(-c2ccc(Cl)cc2Cl)c1-c1ccc(Cl)cc1 the viability at 24 h, 5 µM [1] was under 80%.

CCCCCNC(=O)C(=O)c1nn(-c2ccc(Cl)cc2Cl)c(-c2ccc(Cl)cc2)c1C showed a viability at 24 h, 5 µM [1] of under 80%.

Cc1c(C(=O)C(=O)NC2CCCCCC2)nn(-c2ccc(Cl)cc2Cl)c1-c1ccc(Cl)cc1 showed a viability at 24 h, 5 µM [1] of under 80%.

With CCCCCCCNC(=O)C(=O)c1nn(-c2ccc(Cl)cc2Cl)c(-c2ccc(Cl)cc2)c1C the viability at 24 h, 5 µM [1] was under 80%.

With Cc1c(C(=O)C(=O)NCCO)nn(-c2ccc(Cl)cc2Cl)c1-c1ccc(Cl)cc1 the viability at 24 h, 5 µM [1] was 94.2%, the inhibition at 5 µM [2] was 62.8% and the viability at 24 h, 10 µM [3] was 93.6%. The inhibition at 10 µM [4] was 73.4% and the IC50 [5] was 5.08 µM.

Molecule Cc1c(C(=O)C(=O)NC2CCCC2)nn(-c2ccc(Cl)cc2Cl)c1-c1ccc(Cl)cc1 has a viability at 24 h, 5 µM [1] of under 80%.

With Cc1c(C(=O)C(=O)NCCCO)nn(-c2ccc(Cl)cc2Cl)c1-c1ccc(Cl)cc1 the viability at 24 h, 5 µM [1] was under 80%.

With Cc1c(C(=O)C(=O)NN2CCCCC2)nn(-c2ccc(Cl)cc2Cl)c1-c1ccc(Cl)cc1 the viability at 24 h, 5 µM [1] was under 80%.

Cc1c(C(=O)C(=O)N2CCSCC2)nn(-c2ccc(Cl)cc2Cl)c1-c1ccc(Cl)cc1 gave a viability at 24 h, 5 µM [1] of 99.6%, an inhibition at 5 µM [2] of 13.5% and a viability at 24 h, 10 µM [3] of 96.5%. It also gave an inhibition at 10 µM [4] of 58.3% and an IC50 [5] of 5.28 µM.

With CCCCCCNC(=O)C(=O)c1nn(-c2ccc(Cl)cc2Cl)c(-c2ccc(Cl)cc2)c1C the viability at 24 h, 5 µM [1] was under 80%.

With Cc1c(C(=O)C(=O)N2CCN(C)CC2)nn(-c2ccc(Cl)cc2Cl)c1-c1ccc(Cl)cc1 the viability at 24 h, 5 µM [1] was 95.2%, the inhibition at 5 µM [2] was 38.1% and the viability at 24 h, 10 µM [3] was at most 80%. It also gave an inhibition at 10 µM [4] of 48%.

For CCCCCCCCNC(=O)C(=O)c1nn(-c2ccc(Cl)cc2Cl)c(-c2ccc(Cl)cc2)c1C, the viability at 24 h, 5 µM [1] was under 80%.

Cc1c(C(=O)C(=O)N2CCCC2)nn(-c2ccc(Cl)cc2Cl)c1-c1ccc(Cl)cc1 gave a viability at 24 h, 5 µM [1] of under 80%.

In the case of Cc1c(C(=O)C(=O)NC2CCCCC2)nn(-c2ccc(Cl)cc2Cl)c1-c1ccc(Cl)cc1, the viability at 24 h, 5 µM [1] is reported as 96.8%, the inhibition at 5 µM [2] is reported as 87.4% and the viability at 24 h, 10 µM [3] is reported as under 80%.
